The target of one test is T1, CRAF (Homo sapiens, UniProt P04049).
T1 construct: fused on or other part: GST tag (N-terminal according to the vendor's product)
Put plainly: CRAF kinase activity assay (ADP-Glo). Type of test: biochemical. To be noted: Table 3; 10 μM ATP, kinase-dead MEK1 substrate. In a few lines:
(§1)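 GST-tagged kinase (0.375 nM) with 75 nM kinase-dead MEK1 and 10 μM ATP in HEPES pH 7.5 buffer, 2 h at 30° C, nine concentrations 100–0.01 nM, 0.05% DMSO. ADP-Glo luminescence; % inhibition vs DMSO and substrate-only blanks, IC50 by four-parameter fit.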
In general terms: ADP-Glo first removes unused ATP, then detects ADP through luciferase.

The test system of the next test is pERK, HCT116 cells. Put plainly: Phospho-ERK inhibition, AlphaLISA p-ERK 1/2, HCT-116. It counts as cell-based, human. To be noted: Table 3; for IC50: HCT116 cells (KRAS G13D), 1 h treatment; for HCT116 pERK (Ymin %): lowest % inhibition value of the pERK IC50 curve, above −20% = no paradoxical induction. In a few lines: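 Cells in RPMI-1640 with 5% FBS plated overnight, then treated 1 h with ten-point dilutions (10 μM to 0.33 nM, 0.5% DMSO). Lysate p-ERK1/2 (Thr202/Tyr204) read by AlphaLISA SureFire Ultra; % inhibition normalised to DMSO and 1 μM trametinib background, IC50 by four-parameter fit.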
For orientation: Alpha assays give light when donor and acceptor beads are brought close together.

A further test deals with T2, BRAF (Homo sapiens, UniProt P15056).
T2 construct: GST; purchased Millipore Sigma B4062-10UG
T2 sequence (P15056 whole entry): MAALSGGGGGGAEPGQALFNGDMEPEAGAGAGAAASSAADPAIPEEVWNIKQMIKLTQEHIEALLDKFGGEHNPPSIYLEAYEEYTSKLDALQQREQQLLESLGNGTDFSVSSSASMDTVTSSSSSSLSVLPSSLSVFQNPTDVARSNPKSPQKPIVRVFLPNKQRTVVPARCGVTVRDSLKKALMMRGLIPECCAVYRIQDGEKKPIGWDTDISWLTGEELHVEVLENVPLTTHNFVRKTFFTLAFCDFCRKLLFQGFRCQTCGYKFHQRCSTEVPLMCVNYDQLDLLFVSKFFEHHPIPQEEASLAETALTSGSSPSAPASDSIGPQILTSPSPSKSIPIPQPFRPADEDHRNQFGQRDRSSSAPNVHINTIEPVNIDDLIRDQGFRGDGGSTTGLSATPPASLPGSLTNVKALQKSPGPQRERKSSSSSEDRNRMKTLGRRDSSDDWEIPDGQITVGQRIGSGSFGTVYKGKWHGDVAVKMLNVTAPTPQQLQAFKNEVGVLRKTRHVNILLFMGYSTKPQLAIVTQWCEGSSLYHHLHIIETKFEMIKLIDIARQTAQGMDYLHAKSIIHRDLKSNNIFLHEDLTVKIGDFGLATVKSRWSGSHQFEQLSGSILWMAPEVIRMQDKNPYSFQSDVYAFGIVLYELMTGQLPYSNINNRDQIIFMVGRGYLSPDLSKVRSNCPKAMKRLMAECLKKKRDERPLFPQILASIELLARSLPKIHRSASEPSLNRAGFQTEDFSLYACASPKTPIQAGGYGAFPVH
Put plainly: BRAF kinase activity assay (ADP-Glo). The note with it: Table 3; 10 μM ATP, kinase-dead MEK1 substrate. Type of test: biochemical. A digest of the protocol:
as §1

Some results are limits rather than exact numbers.

T1 sequence (P04049 whole entry Y340E/Y341E, form open, the tested form may be a part): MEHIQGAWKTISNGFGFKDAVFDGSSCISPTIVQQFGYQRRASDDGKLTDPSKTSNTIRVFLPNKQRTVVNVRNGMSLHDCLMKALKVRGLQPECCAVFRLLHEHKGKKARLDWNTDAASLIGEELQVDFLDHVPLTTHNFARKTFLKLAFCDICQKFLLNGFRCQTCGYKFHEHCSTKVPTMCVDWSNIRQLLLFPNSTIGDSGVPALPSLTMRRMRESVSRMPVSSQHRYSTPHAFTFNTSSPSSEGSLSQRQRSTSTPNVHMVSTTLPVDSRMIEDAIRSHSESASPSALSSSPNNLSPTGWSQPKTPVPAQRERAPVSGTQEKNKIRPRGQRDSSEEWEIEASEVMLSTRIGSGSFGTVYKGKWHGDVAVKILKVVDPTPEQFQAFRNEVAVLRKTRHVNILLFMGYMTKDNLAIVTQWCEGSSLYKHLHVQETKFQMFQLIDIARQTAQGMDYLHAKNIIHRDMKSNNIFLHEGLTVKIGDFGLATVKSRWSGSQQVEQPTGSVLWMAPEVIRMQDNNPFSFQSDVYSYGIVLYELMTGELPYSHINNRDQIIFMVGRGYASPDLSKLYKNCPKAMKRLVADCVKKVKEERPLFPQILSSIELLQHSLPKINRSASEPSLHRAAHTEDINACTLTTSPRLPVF

`O=C(c1cn(-c2nc3c(Nc4c(F)ccc(NS(=O)(=O)c5cccc(Cl)c5Cl)c4F)ncnc3s2)c2ccccc12)N1C2CCC1COC2` [Example 51]: the IC50 (in general, the point on the concentration scale where inhibition reaches its midpoint) is < 10 nM on CRAF; < 500 nM in the test on pERK, HCT116 cells; < 1 nM at BRAF. In addition, the “HCT116 pERK (Ymin %)” value in the test with pERK, HCT116 cells is −1%.
The like results for `O=C(c1cn(-c2nc3c(Nc4c(F)ccc(NS(=O)(=O)c5cccc(Cl)c5Cl)c4F)ncnc3s2)c2ccccc12)N1CCC(CO)C1` (stereo not shown) [Example 52] were, in that order, < 10 nM, 500 to 1000 nM, < 1 nM and −9%.
The like results for `O=C(c1cn(-c2nc3c(Nc4c(F)ccc(NS(=O)(=O)c5cccc(Cl)c5Cl)c4F)ncnc3s2)c2ccccc12)N1CCC(O)C1` (stereo not shown) [Example 53] were, in that order, < 10 nM, 500 to 1000 nM, < 1 nM and −9%.
The like results for `N#CC1CN(C(=O)c2cn(-c3nc4c(Nc5c(F)ccc(NS(=O)(=O)c6cccc(Cl)c6Cl)c5F)ncnc4s3)c3ccccc23)C1` [Example 54] were, in that order, < 10 nM, < 500 nM, 1 to 10 nM and −6%.
Take `O=C(c1cn(-c2nc3c(Nc4c(F)ccc(NS(=O)(=O)c5cccc(Cl)c5Cl)c4F)ncnc3s2)c2ccccc12)N1CCCC(O)C1` (stereo not shown) [Example 55]: the IC50 at CRAF was < 10 nM; with pERK, HCT116 cells it was 500 to 1000 nM; at BRAF, < 1 nM. Further, the “HCT116 pERK (Ymin %)” value with pERK, HCT116 cells is listed as −3%.
In the case of `CN1CC2CCC(C1)N2C(=O)c1cn(-c2nc3c(Nc4c(F)ccc(NS(=O)(=O)c5cccc(Cl)c5Cl)c4F)ncnc3s2)c2ccccc12` [Example 56], the concentration for half-maximal inhibition (IC50) at CRAF was < 10 nM; with pERK, HCT116 cells it was < 500 nM; at BRAF it was < 1 nM. Further, the “HCT116 pERK (Ymin %)” value in the test on pERK, HCT116 cells is given as 0%.
The corresponding values for `O=C(c1cn(-c2nc3c(Nc4c(F)ccc(NS(=O)(=O)c5cccc(Cl)c5Cl)c4F)ncnc3s2)c2ccccc12)N1CC(C(F)F)C1` [Example 57] are 10 to 50 nM, < 500 nM, 1 to 10 nM and 4%.
The corresponding values for `O=C(c1cn(-c2nc3c(Nc4c(F)ccc(NS(=O)(=O)c5cccc(Cl)c5Cl)c4F)ncnc3s2)c2ccccc12)N1CC2(CCOCC2)C1` [Example 58] are < 10 nM, < 500 nM, 1 to 10 nM and −12%.
Regarding `O=C(c1cn(-c2nc3c(Nc4c(F)ccc(NS(=O)(=O)c5cccc(Cl)c5Cl)c4F)ncnc3s2)c2ccccc12)N1CC(O)C1` [Example 59], the 50% inhibitory concentration (IC50) at CRAF was < 10 nM; with pERK, HCT116 cells it was 500 to 1000 nM; on BRAF, < 1 nM. The “HCT116 pERK (Ymin %)” value with pERK, HCT116 cells stood at 4%.
The like results for `N#CCC1CN(C(=O)c2cn(-c3nc4c(Nc5c(F)ccc(NS(=O)(=O)c6cccc(Cl)c6Cl)c5F)ncnc4s3)c3ccccc23)C1` [Example 60] were, in that order, < 10 nM, < 500 nM, < 1 nM and −2%.
The like results for `NS(=O)(=O)c1cn(-c2nc3c(Nc4c(F)ccc(NS(=O)(=O)c5cccc(Cl)c5Cl)c4F)ncnc3s2)c2ccccc12` [Example 61] were, in that order, < 10 nM, < 500 nM, 1 to 10 nM and −13%.
Regarding `COCCNS(=O)(=O)c1cn(-c2nc3c(Nc4c(F)ccc(NS(=O)(=O)c5cccc(Cl)c5Cl)c4F)ncnc3s2)c2ccccc12` [Example 62], the IC50 on CRAF is < 10 nM; with pERK, HCT116 cells, < 500 nM; on BRAF, 1 to 10 nM. The “HCT116 pERK (Ymin %)” value in the test on pERK, HCT116 cells came out at 2%.
The corresponding values for `CCS(=O)(=O)c1cn(-c2nc3c(Nc4c(F)ccc(NS(=O)(=O)c5cccc(Cl)c5Cl)c4F)ncnc3s2)c2ccccc12` [Example 63] are 10 to 50 nM, < 500 nM, 1 to 10 nM and −5%.

The values are drawn from patent publication US20260137697A1, “THIAZOLO[5,4-D]PYRIMIDINE COMPOUNDS, COMPOSITIONS COMPRISING THEM AND USES THEREOF” (University de Montreal, priority 2022, published 2026).
